Where two headings read alike, the source gives them in different places. Starred links: 1 amine or outer side, 2 acyl side, 3 side chain; linkers in the order of their positions; H or OH if unused. Positions of bridges follow the written chain, without caps; N, C: chain ends. Non-standard residues stand in square brackets, D forms with d. Residues, ends and D or L forms follow the SMILES beside them. *: point of attachment. hTyr(3S-OH,4S-OH,3'-OSO3H) = N[C@H](C(=O)O)[C@H](O)[C@@H](O)c1ccc(O)c(OS(=O)(=O)O)c1; Orn(4R-OH,5R-OH) = O=C([C@H](C[C@@H](O)[C@@H](O)N[*:3])N[*:1])[*:2]; Pro(3S-OH,4S-Me) = C[C@H]1CN[C@H](C(=O)O)[C@H]1O; X1 = CCCCCOc1ccc(-c2cc(-c3ccc(C(=O)*)cc3)no2)cc1; Gln(3R-OH) = NC(=O)C[C@@H](O)[C@H](N)C(=O)O; Hyp = O=C(O)[C@@H]1C[C@@H](O)CN1
Tests used:
[1] = system: Phakopspora pachyrhizi SDM Y131F I475T isolates; design: method as in PMID 23589453; conditions: isolates from soybean plants in Brazil; cited from earlier work
[2] = system: S. cerevisiae test and control strains (AD2Δ, AD3Δ and mutants); assay: Broth microdilution MIC80, comparison across the various cell types tested; type: cell-based, Saccharomyces cerevisiae; conditions: p > 0.05
Protocol: (§1) Azole susceptibility was measured as the mean drug concentration required to inhibit 80% of yeast growth (MIC80) compared to a non-drug control, using a standard broth microdilution assay. Serial dilutions of short- (FLC and VCZ), medium- (VT-1161), and long-tailed (ITC and PCZ) azole drugs, and the control drugs micafungin (MCF) and amphotericin B (AMB), were prepared in a 96-well microtiter plate in complete synthetic media lacking uracil, buffered to pH 6.8 [34]. Control and test cells were seeded at an optical density of 600 nm (OD600) of 0.005 (~1.5 × 10^4 colony forming units). After incubation for 48 h at 30 °C with constant agitation (200 rpm), the OD600 nm of each well was measured using a Synergy 2 multi-mode plate reader (BioTek Instruments, Winooski, VT, USA). The experiment was repeated three times (a total of nine measurements for the response of each strain to each drug). GraphPad Prism 5.0 software was used for statistical analysis, using a one-way analysis of variance with a Bonferroni post-hoc test. The statistical significance of comparisons was accepted when p < 0.05.

[3] = system: S. cerevisiae strain AD3Δ ScErg11 Y140H expressing ScLDM6×His Y140H; assay: Broth microdilution drug susceptibility assay (MIC80), strain AD3Δ ScErg11 Y140H; type: cell-based, Saccharomyces cerevisiae; conditions: for MIC80: Saccharomyces cerevisiae, 48 h, 30 °C, pH 6.8, mean (± SEM), n = 3
Protocol: (§2) The native ScERG11 gene in yeast cells containing mutant ScERG11-6×His constructs in the PDR5 locus was disrupted by homologous recombination with a cassette encoding the His1 selection marker and sequences homologous with the regions bordering the endogenous ScERG11 ORF to create strains AD3Δ ScErg11 Y140H, AD3Δ ScErg11 I471T and AD3Δ ScErg11Y140H I471T [43]. Transformants were selected on SD-His agar plates incubated at 30 °C for 48–72 h. Genomic DNA was extracted, and DNA sequencing as above was used to confirm deletion of the native ERG11. Strain AD3Δ ScErg11 (denoted as AD3Δ), which overexpresses wild-type ScLDM6×His from the PDR5 locus and has the native ScERG11 gene disrupted, was used as a control strain [43].
as §1

[4] = system: S. cerevisiae strain AD2Δ (native wild-type ScLDM); assay: Broth microdilution drug susceptibility assay (MIC80), host strain AD2Δ; type: cell-based; conditions: Saccharomyces cerevisiae, 48 h, pH 6.8
Protocol: Yeast strains used in this study (Supplementary Table S1) were prepared using the AD2Δ strain of S. cerevisiae as a host, using an established protocol. AD2Δ is hypersensitive to xenobiotics due to the deletion of seven major ABC transporters, including those responsible for the efflux of azole drugs. It is also deleted of the PDR3 transcriptional regulator, but contains the gain-of-function Pdr1-3 transcriptional regulator mutation that leads to constitutive overexpression from the PDR5 locus.
as §1

[5] = system: S. cerevisiae strain AD3Δ ScErg11 (AD3Δ) overexpressing wild-type ScLDM6×His; assay: Broth microdilution drug susceptibility assay (MIC80), strain AD3Δ ScErg11; type: cell-based, Saccharomyces cerevisiae; conditions: for MIC80: Saccharomyces cerevisiae, 48 h, pH 6.8; for effect of ScLDM6×His overexpression on susceptibility to control antifungals: strain AD3Δ vs AD2Δ
Protocol: as §2, §1

[6] = system: S. cerevisiae strain AD3Δ ScErg11 Y140H I471T expressing ScLDM6×His Y140H I471T; assay: Broth microdilution drug susceptibility assay (MIC80), strain AD3Δ ScErg11 Y140H I471T; type: cell-based, Saccharomyces cerevisiae
Protocol: as §2, §1

[7] = system: C. albicans Darlington strain; assay: Agarose disk diffusion assay, Darlington strain; type: cell-based, Candida albicans; conditions: for agarose diffusion susceptibility: no efflux pump inhibitor
Protocol: (§3) Agarose diffusion assays were carried out as described previously using the Darlington strain of C. albicans (Pfizer Ltd., Sandwich, UK) and the control C. albicans database strain SC5314, which is not resistant to azoles. The Cdr1p-specific inhibitor RC21v3 and the CaMdr1p-specific inhibitor MCC1189 (MicroCombiChem, Wiesbaden, Germany), included in the assay medium at 6 µM, were used to investigate the contribution of efflux pumps to azole resistance in the Darlington strain [49, 50, 51].

[8] = system: S. cerevisiae strain AD3Δ ScErg11 I471T expressing ScLDM6×His I471T; assay: Broth microdilution drug susceptibility assay (MIC80), strain AD3Δ ScErg11 I471T; type: cell-based, Saccharomyces cerevisiae; conditions: for MIC80: Saccharomyces cerevisiae, 48 h, 30 °C, pH 6.8, mean (± SEM), n = 3; for increased susceptibility compared with AD3Δ: strain AD3Δ ScErg11 I471T, not corrected for expression
Protocol: as §2, §1

[9] = system: C. albicans strain SC5314; assay: Agarose disk diffusion assay, control strain SC5314; type: cell-based, Candida albicans
Protocol: as §3

[10] = molecular target: wild-type and Y140F/H mutants of ScLDM6×His; design: method as in earlier work; conditions: no significant differences, ref 5 (supplement; Sagatova et al. 2016); cited from earlier work
[11] = strain AD2Δ, 30 °C, mean (± SEM), n = 3, read-out: MIC80
[12] = strain AD3Δ, 30 °C, mean (± SEM), n = 3, read-out: MIC80
[13] = Saccharomyces cerevisiae, strain Y140H + I471T, 48 h, 30 °C, pH 6.8, mean (± SEM), n = 3
[14] = strain Y140H, relative expression 0.74
[15] = strain Y140H+I471T, relative expression 0.41
[16] = strain I471T, relative expression 0.51

Row | SMILES | differences between MIC80s for the various cell types tested [2] | MIC80 ([3]; strain Y140H) | MIC80 [4, 11] | MIC80 [5, 12] | effect of ScLDM6×His overexpression on susceptibility to control antifungals [5] | MIC80 [6, 13] | agarose diffusion susceptibility [7] | MIC80 ([8]; strain I471T) | increased susceptibility compared with AD3Δ [8] | other results
1 | Fc1ccc([C@]2(Cn3cncn3)O[C@H]2c2ccccc2Cl)cc1 (racemic) [epoxiconazole] | – | – | – | – | – | – | – | – | – | resistance conferred by the double mutation Y131F I475T [1]: ~ 100 fold
2 | C[C@@H]1[C@H](O)[C@@H](C)/C=C/C=C/C=C/C=C/C=C/C=C/C=C/[C@H](O[C@@H]2O[C@H](C)[C@@H](O)[C@H](N)[C@@H]2O)C[C@@H]2O[C@](O)(C[C@@H](O)C[C@@H](O)[C@H](O)CC[C@@H](O)C[C@@H](O)CC(=O)O[C@H]1C)C[C@H](O)[C@H]2C(=O)O [AMB, amphotericin B] | no statistically significant differences | 2.19 µM | 2.18 µM | 2.34 µM | did not modify susceptibility | 2.14 µM | mild resistance | 2.26 µM | not | –
3 | OC(Cn1cncn1)(Cn1cncn1)c1ccc(F)cc1F [FLC, fluconazole] | – | 7.4 µM | – | – | – | 11.5 µM | resistant | 1.88 µM | 1.9 fold | resistance conferred, relative amount of recombinant ScLDM6×His taken into account ([3]; ScLDM6×His Y140H vs AD3Δ): 2.8 fold; MIC80 higher than strain AD3Δ ScErg11 ([3]; strain AD3Δ ScErg11 Y140H vs AD3Δ, not corrected for expression, p < 0.001): ~ 2 fold; MIC80/Relative Amount of ScLDM6×His [3, 14]: 10 µM; fold-resistance based on the relative amount of recombinant enzyme compared with strain AD3Δ [3, 14]: 2.8 ×; MIC80 [4]: 1.33 µM; effect of Cdr1p inhibitor RC21v3 on azole susceptibility [9]: did not alter the susceptibility; effect of Mdr1 inhibitor MCC1189 on azole susceptibility [9]: did not alter the susceptibility; agarose diffusion susceptibility ([9]; SC5314, no efflux pump inhibitor): susceptible; MIC80/Relative Amount of ScLDM6×His [5]: 3.64 µM; MIC80 [5]: 3.64 µM; MIC80 higher than AD3Δ ScErg11 cells ([6]; strain AD3Δ ScErg11 Y140H I471T, not corrected for expression, p < 0.001): approximately 3 fold; MIC80 higher than cells overexpressing ScLDM6×His Y140H ([6]; strain AD3Δ ScErg11 Y140H I471T, p < 0.001): 1.5 fold; MIC80/Relative Amount of ScLDM6×His [6, 15]: 28.0 µM; fold-resistance based on the relative amount of recombinant enzyme compared with strain AD3Δ [6, 15]: 7.7 ×; effect of Mdr1 inhibitor MCC1189 on azole susceptibility ([7]; MCC1189 at 6 µM in the assay medium): did not alter the susceptibility; effect of Cdr1p inhibitor RC21v3 on azole susceptibility ([7]; RC21v3 at 6 µM in the assay medium): did not alter the susceptibility; Kd [10]: ~0.5 µM; MIC80/Relative Amount of ScLDM6×His [8, 16]: 3.69 µM; fold-resistance based on the relative amount of recombinant enzyme compared with strain AD3Δ [8, 16]: 1.0 ×
4 | CCCCCOc1ccc(-c2cc(-c3ccc(C(=O)N[C@H]4C[C@@H](O)[C@@H](O)NC(=O)[C@@H]5[C@@H](O)[C@@H](C)CN5C(=O)[C@H]([C@H](O)CC(N)=O)NC(=O)[C@H]([C@H](O)[C@@H](O)c5ccc(O)c(OS(=O)(=O)O)c5)NC(=O)[C@@H]5C[C@@H](O)CN5C(=O)[C@H]([C@@H](C)O)NC4=O)cc3)no2)cc1 [MCF, micafungin] (X1-[Orn(4R-OH,5R-OH)]T[Hyp][hTyr(3S-OH,4S-OH,3'-OSO3H)][Gln(3R-OH)][Pro(3S-OH,4S-Me)]; lactam 1-C) | no statistically significant differences | 0.166 µM | 0.174 µM | 0.146 µM | did not modify susceptibility | – | – | 0.164 µM | not | MIC [6, 13]: 0.162 µM

From PMC8621857, “Structural Insights into the Azole Resistance of the Candida albicans Darlington Strain Using Saccharomyces cerevisiae Lanosterol 14α-Demethylase as a Surrogate” (Journal of Fungi, 2021)
